Key:
[1] = In vitro stability in saline; type: physicochemical; conditions: 37.0 °C, more than 48 h incubation
Procedure: (§1) The in vitro stability of ^64Cu-PSMA-CM was tested in 5% human serum albumin (HSA) and saline at 37.0 °C.
(§2) ^64Cu-PSMA-CM was incubated in saline or 5% human serum albumin (HSA) at 37 °C and the radiochemical purity was determined by radio-HPLC at different points in time (1 h, 4 h, 12 h, 24 h, and 48 h). For the stability in 5% HSA, 15 μL of mixture was taken out and precipitated by ethanol, filtered, and the supernatant was analyzed.

[2] = In vitro stability in 5% human serum albumin; type: in vitro ADME; conditions: 37.0 °C, more than 48 h incubation
Procedure: as §1, §2

[3] = Partition coefficient (octanol/PBS); type: physicochemical; conditions: octanol / PBS (0.1 M, pH 7.4)
Procedure: Amounts of 10 μL of ^64Cu-PSMA-CM in saline (0.37 MBq), 990 μL of phosphate-buffered saline (PBS, 0.1 M, pH 7.4), and 1mL of octanol were mixed in a tube. The mixture was vortexed for 3 min and centrifuged (3000 rpm × 5 min). Then, five samples (100 μL) from each phase were removed and the radioactivity was measured. The experiment was repeated three times. The partition coefficient value was calculated as below: P = (average of counts in octanol/average of counts in PBS), the value was expressed as log P ± SD.

PSMA (+) 22Rv1 cells = assay: Cell uptake in 22Rv1 cells; type: cell-based, human; conditions: 120 min
Procedure: (§3) The 22Rv1 and PC-3 cell lines were plated on 24-well plates (2 × 10^5 cells/well). After incubating for 24 h, the medium was removed and washed with PBS (phosphate buffer saline, 0.01 M). Then, 500 μL medium with 74 KBq of ^64Cu-PSMA-CM was added to the well plates and co-incubated with cells at 37 °C for 10 min, 30 min, 60 min, and 120 min. The medium was then removed and the cells were washed twice with 1 mL of cold PBS. After that, cells were lysed with 1M NaOH, and then the NaOH solution was collected for analysis. For the blocking experiment, cells were co-incubated with ZJ-43 (1 µg/well), a PSMA inhibitor, for 120 min. Five samples of ^64Cu-PSMA-CM were taken out and were thought to be standard. The result was expressed as %IA/10^6 cells. For comparison, the cell uptake experiment of ^64Cu-PSMA-BCH in 22Rv1 cells was performed.

PSMA (−) PC-3 cells = assay: Cell uptake in PC-3 cells; type: cell-based, human
Procedure: as §3

PSMA = target: T1, PSMA (Homo sapiens, UniProt Q04609); assay: Binding affinity to PSMA on 22Rv1 cells (dissociation constant); conditions: 2 h at 37 °C, one-site total model
T1 construct: endogenous in cells; host or cells: 22Rv1 cells
Procedure: The dissociation constant of ^64Cu-PSMA-CM was performed on 22Rv1 cells by adding different concentrations of ^64Cu-PSMA-CM (0.185–74 kBq/mL, 400 μL/well, 4 well/group) to the 24-well plate (2 × 10^5 cells/well). After incubation for 2 h at 37 °C, the medium was removed, the cells were washed twice with cold PBS and then lysed by 0.5 mL NaOH. The radioactivity of NaOH solution was measured and the dissociation constant was calculated using the one-site total model in Graph Pad software (Graph Pad prism 5). Similarly, the dissociation constant of ^64Cu-PSMA-CM was determined with the same protocol.

[4] = Pharmacokinetics in blood; type: in vivo, mice
Procedure: The pharmacokinetics profile of ^64Cu-PSMA-CM in blood circulation was tested by injecting 3.7 MBq of ^64Cu-PSMA-CM into Balb/c male mice (n = 4).
An amount of 3.7 MBq (250 μL) of ^64Cu-PSMA-CM was intravenously injected into Babl/c male mice (n = 4). Blood was collected from the ophthalmic artery at different time points, then the radioactivity of blood was weighed and measured by a γ-counter. An injection of 2.5 μL was taken out as standard. The results were expressed as the percentage of injected dose per gram (%ID/g).
A two-phase decay Equation (1) in Graph Pad software (Graph Pad prism 5) was used to serve as the two-compartment model which models biological process of the probe by fitting the ID%/g versus to time of ^64Cu-PMA-CM to describe blood pharmacokinetics. Ct = Ae^−αt + Be^−βt(1) where A and B are relevant constants, and α and β are rate constants which were used to calculate as ln(2)/α and ln(2)/β for the half-life of distribution phase and elimination phase, respectively.

[5] = test system: mice bearing 22Rv1 tumors; assay: Biodistribution in 22Rv1 tumor model mice; type: in vivo; conditions: for Biodistribution, Liver / Biodistribution, Spleen / Biodistribution, Blood / Biodistribution, Brain / Biodistribution, Heart / Biodistribution, Kidney / Biodistribution, LI (large intestine) / Biodistribution, Lung / Biodistribution, Muscle / Biodistribution, tumor: 22Rv1 male mice
Procedure: Twelve 22Rv1 tumor model mice were randomly divided into four groups and then ^64Cu-PSMA-CM (200 μL, 0.74 MBq/mouse) was injected via tail vein. […] Organs of interest including blood, heart, liver, spleen, lung, kidney, small intestine, large intestine, muscle, brain, and 22Rv1 tumor were collected. The organs were then weighed and measured for their radioactivity. Five samples of the 1% injection volume were taken out as a standard. The final uptake values of each organ were expressed as the percentage of injected dose per gram (%ID/g).

[6] = test system: mice bearing 22Rv1 tumors; assay: Micro-PET imaging in mice bearing 22Rv1 xenograft tumors; type: in vivo
Procedure: An amount of 200 μL of ^64Cu-PSMA-CM (9.32 MBq) was injected into mice bearing 22Rv1 xenograft tumors via tail vein. For blocking, the mice were co-injected with 50 μg of ZJ-43. Imaging was performed on Super Nova PET/CT (PINGSENG, Shanghai, China). The mice were anaesthetized with 3% (v/v) isoflurane, then fixed on the bed at 4 h, 8 h, 12 h, 24 h, and 48 h p.i. Micro-PET scans were conducted with continuous 1% (v/v) isoflurane for 15 min. The images of ^64Cu-PSMA-CM were obtained at different time points and SUV mean values of regions of interest (ROIs) over the heart, kidney, muscle, liver, and tumor were collected. The ratio of tumor-to-non-target organs was then calculated at different time points. To better assess its […] in vivo, a comparison with ^64Cu-PSMA-BCH (5.55 MBq/mouse) of micro-PET imaging was performed in mice bearing 22Rv1 tumor models at 4 h p.i., 12 h p.i., and 24 h p.i. The mean standardized uptake value (SUVmean) in each organ was calculated according to following Formula (2). SUV = Activity VOI (MBq/mL)/Injected dose (MBq) × Body weight (g)(2)

[7] = blood activity–time profile, in Figure 5
[8] = blood activity–time profile, in Figure 5, in h
[9] = blood, mice, 3.7 MBq i.v., two-phase decay fit

T1 sequence (Q04609 whole entry): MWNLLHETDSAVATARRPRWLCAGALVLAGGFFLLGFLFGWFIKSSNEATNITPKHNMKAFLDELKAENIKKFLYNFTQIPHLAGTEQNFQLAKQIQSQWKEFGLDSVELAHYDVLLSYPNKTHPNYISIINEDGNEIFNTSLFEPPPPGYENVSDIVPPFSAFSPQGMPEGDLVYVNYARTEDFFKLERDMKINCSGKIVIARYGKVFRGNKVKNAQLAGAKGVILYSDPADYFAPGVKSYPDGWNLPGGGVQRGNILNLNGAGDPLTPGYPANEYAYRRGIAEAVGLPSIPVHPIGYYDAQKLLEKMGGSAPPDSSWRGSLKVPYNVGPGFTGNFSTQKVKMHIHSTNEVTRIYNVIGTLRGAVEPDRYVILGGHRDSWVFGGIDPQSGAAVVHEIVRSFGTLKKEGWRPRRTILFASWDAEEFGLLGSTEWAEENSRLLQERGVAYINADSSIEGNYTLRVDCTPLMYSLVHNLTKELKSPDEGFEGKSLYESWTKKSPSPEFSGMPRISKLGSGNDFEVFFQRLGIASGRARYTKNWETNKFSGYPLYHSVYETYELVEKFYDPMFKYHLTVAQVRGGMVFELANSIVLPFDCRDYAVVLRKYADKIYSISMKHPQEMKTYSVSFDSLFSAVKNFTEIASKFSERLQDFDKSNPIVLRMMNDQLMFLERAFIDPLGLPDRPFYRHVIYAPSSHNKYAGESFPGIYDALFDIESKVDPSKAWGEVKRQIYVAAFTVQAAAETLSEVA

## O=C([O-])CN1CCN(CC(=O)[O-])CCN(CC(=O)NC(CNC(CC(=O)NC[C@H]2CC[C@H](C(=O)N[C@H](Cc3ccc4ccccc4c3)C(=O)NCCCC[C@H](NC(=O)N[C@@H](CCC(=O)O)C(=O)O)C(=O)O)CC2)C(=O)NCCOCCOCCNC(=O)CCN2C(=O)C=CC2=O)Cc2ccccc2)CC1.[64Cu+2] (stereo partly drawn) [^64Cu-PSMA-CM]
[1]
  radiochemical purity (RCP) after incubation in saline: over 95%
[2]
  radiochemical purity (RCP) after incubation in 5% HSA: over 95%
[3]
  log P: −2.25 ± 0.05
PSMA (+) 22Rv1 cells
  highest uptake value in PSMA (+) 22Rv1 cells: 5.45 ± 0.42 IA%/10^6 cells
  uptake in 22Rv1 cells: 5.45 ± 0.42 %IA/10^6 cells
PSMA (+) 22Rv1 cells; co-incubated with ZJ-43 (1 µg/well)
  uptake in 22Rv1 cells blocked by ZJ-43: 3.38 ± 0.04 IA%/10^6 cells
PSMA (−) PC-3 cells; 120 min
  uptake in PSMA (−) PC-3 cells: 1.79 ± 0.20 IA%/10^6 cells
PSMA (−) PC-3 cells; p > 0.05
  blocking of uptake in PC-3 cells by excess of ZJ-43: cannot be blocked
PSMA
  Kd: 4.58 nM
[4]; [7]
  KFast: 4.287
  KSlow: 0.1765
[4]; [8]
  Half Life (Fast): 0.1617
  Half Life (Slow): 3.927
[4]; [9]
  half-life of the distribution phase: 9.6 min
  half-life of the elimination phase: 3.93 h
[5]; 22Rv1-beared male mice, 24 h p.i.
  highest uptake in 22Rv1 tumor: 14.29 ± 1.44 %ID/g
[5]; 22Rv1-beared male mice, within 1 h
  uptake in kidneys: 95.84 ± 3.33 %ID/g
[5]
  Biodistribution, Liver: 8.50±1.06 ID%/g
  Biodistribution, Spleen: 2.65±0.55 ID%/g
[5]; 1 h
  Biodistribution, Blood: 16.95 ± 3.05 ID%/g
  Biodistribution, Brain: 0.69±0.07 ID%/g
  Biodistribution, Heart: 4.49±0.47 ID%/g
  Biodistribution, Kidney: 95.84±3.33 ID%/g
  Biodistribution, LI (large intestine): 3.75±0.11 ID%/g
  Biodistribution, Liver: 5.34 ± 1.13 ID%/g
  Biodistribution, Lung: 9.91±0.43 ID%/g
  Biodistribution, Muscle: 1.15±0.09 ID%/g
  Biodistribution, Spleen: 8.48±3.35 ID%/g
  Biodistribution, tumor: 8.09±1.66 ID%/g
[5]; 6 h
  Biodistribution, Blood: 12.33±2.83 ID%/g
  Biodistribution, Brain: 0.47±0.05 ID%/g
  Biodistribution, Heart: 4.16±0.62 ID%/g
  Biodistribution, Kidney: 26.78±0.69 ID%/g
  Biodistribution, LI (large intestine): 2.85±0.06 ID%/g
  Biodistribution, Liver: 5.24±0.59 ID%/g
  Biodistribution, Lung: 8.47±1.45 ID%/g
  Biodistribution, Muscle: 1.22±0.25 ID%/g
  Biodistribution, Spleen: 4.63±1.13 ID%/g
  Biodistribution, tumor: 8.51±1.99 ID%/g
[5]; 12 h
  Biodistribution, Blood: 5.41±0.94 ID%/g
  Biodistribution, Brain: 0.44±0.06 ID%/g
  Biodistribution, Heart: 1.96±0.35 ID%/g
  Biodistribution, Kidney: 14.19±1.40 ID%/g
  Biodistribution, LI (large intestine): 4.32±0.69 ID%/g
  Biodistribution, Lung: 6.28±0.72 ID%/g
  Biodistribution, Muscle: 1.24±0.77 ID%/g
  Biodistribution, tumor: 14.29±1.44 ID%/g
[5]; 24 h
  Biodistribution, Blood: 2.83±0.41 ID%/g
  Biodistribution, Heart: 0.95±0.21 ID%/g
  Biodistribution, Kidney: 8.92±0.41 ID%/g
  Biodistribution, LI (large intestine): 2.81±0.35 ID%/g
  Biodistribution, Liver: 6.14±0.23 ID%/g
  Biodistribution, Lung: 5.60±0.23 ID%/g
  Biodistribution, Spleen: 2.31±0.26 ID%/g
  Biodistribution, tumor: 10.57±1.23 ID%/g
[6]; 24 h p.i.
  SUV mean value in 22Rv1 tumor (highest accumulation): 1.88 ± 0.04
[6]; ZJ-43 50 μg, p < 0.001
  uptake in tumors and kidneys when co-injected with excess ZJ-43: significantly decreased

— paper PMC9143078, “An Albumin-Binding PSMA Ligand with Higher Tumor Accumulation for PET Imaging of Prostate Cancer” (Pharmaceuticals, 2022)
